Drawing on patent US9120770B2, “Substituted pyridine and pyrazine compounds as PDE4 inhibitors” (DART NEUROSCIENCE (CAYMAN) LTD., priority 2013, dated 2015), this text covers EC50 for 33 compounds.

Chain of PDE4D3 (Q08499 1-673 isoform Q08499-2): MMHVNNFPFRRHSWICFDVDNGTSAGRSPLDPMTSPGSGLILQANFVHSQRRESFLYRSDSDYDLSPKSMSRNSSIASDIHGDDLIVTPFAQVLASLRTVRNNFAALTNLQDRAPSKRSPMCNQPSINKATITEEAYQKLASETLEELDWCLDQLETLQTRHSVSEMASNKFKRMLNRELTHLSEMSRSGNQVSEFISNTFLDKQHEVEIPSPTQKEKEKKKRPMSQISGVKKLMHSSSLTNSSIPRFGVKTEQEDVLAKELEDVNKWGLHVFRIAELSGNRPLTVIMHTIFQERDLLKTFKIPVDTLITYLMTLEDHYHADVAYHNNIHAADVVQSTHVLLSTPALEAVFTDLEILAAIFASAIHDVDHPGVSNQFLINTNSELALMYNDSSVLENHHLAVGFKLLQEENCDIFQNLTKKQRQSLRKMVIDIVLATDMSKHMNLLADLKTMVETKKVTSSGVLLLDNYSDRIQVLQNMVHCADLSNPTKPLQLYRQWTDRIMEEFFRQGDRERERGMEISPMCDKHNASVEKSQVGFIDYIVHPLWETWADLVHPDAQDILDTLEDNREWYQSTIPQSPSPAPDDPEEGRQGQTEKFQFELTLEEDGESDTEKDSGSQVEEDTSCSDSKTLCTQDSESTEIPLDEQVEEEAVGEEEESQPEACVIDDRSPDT

The assay addresses PDE4D3 (Homo sapiens, UniProt Q08499).
The term EC50 denotes the concentration giving half of the maximal effect. For the compound `COc1ncc(Cn2cnc(C(C)(C)O)n2)cc1-c1cccc(Cl)c1` [Example 247, 2-(1-{[5-(3-Chlorophenyl)-6-methoxypyridin-3-yl]methyl}-1H-1,2,4-triazol-3-yl)propan-2-ol], the EC50 was 1 to 10 µM.
As for `COc1ncc(Cn2cncn2)cc1-c1cnn(C)c1` [Example 248, 2-Methoxy-3-(1-methyl-1H-pyrazol-4-yl)-5-(1H-1,2,4-triazol-1-ylmethyl)pyridine], the figure is 1 to 10 µM; as for `COc1ncc(Cn2ncnc2C(C)(C)O)cc1-c1cccc(Cl)c1` [Example 249, 2-(1-{[5-(3-Chlorophenyl)-6-methoxypyridin-3-yl]methyl}-1H-1,2,4-triazol-5-yl)propan-2-ol], above 10 µM; as for `COc1ncc(Cc2ccc(C(C)(C)O)cc2)cc1-c1cccc(Cl)c1` [Example 250, 2-(4-{[5-(3-Chlorophenyl)-6-methoxypyridin-3-yl]methyl}phenyl)propan-2-ol], 0.1 to 1 µM.
As for `COc1ncc(Cc2ccc(C(C)(C)O)nc2)cc1-c1cccc(Cl)c1` [Example 251, 2-(5-{[5-(3-Chlorophenyl)-6-methoxypyridin-3-yl]methyl}pyridin-2-yl)propan-2-ol], the half-maximal effective concentration (EC50) lay within 0.1 to 1 µM.
As for `CC(C)(O)c1ccc(Cc2cnc(OC(F)F)c(-c3cccc(Cl)c3)c2)cn1` [Example 252, 2-(5-{[5-(3-Chlorophenyl)-6-(difluoromethoxy)pyridin-3-yl]methyl}pyridin-2-yl)propan-2-ol], the figure is 0.1 to 1 µM; as for `COc1ncc(Cn2cnc(CF)n2)cc1-c1cccc(OC(F)F)c1` [Example 253, 3-[3-(Difluoromethoxy)phenyl]-5-{[3-(fluoromethyl)-1H-1,2,4-triazol-1-yl]methyl}-2-methoxypyridine], below 0.1 µM; as for `CCOc1ncc(Cn2cc(CF)nn2)cc1-c1cccc(OC(F)F)c1` [Example 254, 3-[3-(Difluoromethoxy)phenyl]-2-ethoxy-5-{[4-(fluoromethyl)-1H-1,2,3-triazol-1-yl]methyl}pyridine], 0.1 to 1 µM.
In the case of `CCOc1cccc(-c2cc(Cn3cnc(CF)n3)cnc2OC(F)F)c1` [Example 255, 2-(Difluoromethoxy)-3-(3-ethoxyphenyl)-5-{[3-(fluoromethyl)-1H-1,2,4-triazol-1-yl]methyl}pyridine] it was 0.1 to 1 µM.
`COc1ncc(Cn2cnc(CF)n2)cc1-c1ccnc(OC(F)F)c1` [Example 256, 3-[2-(Difluoromethoxy)pyridin-4-yl]-5-{[3-(fluoromethyl)-1H-1,2,4-triazol-1-yl]methyl}-2-methoxypyridine]: the 50% effective concentration (EC50) was below 0.1 µM.
In turn, `CCOc1ncc(Cn2cnc(CF)n2)nc1-c1cccc(OC(F)F)c1` [Example 257, 3-[3-(Difluoromethoxy)phenyl]-2-ethoxy-5-{[3-(fluoromethyl)-1H-1,2,4-triazol-1-yl]methyl}pyrazine] gave an EC50 of 1 to 10 µM.
Turning to `COc1ncc(Cn2cnc(CF)n2)nc1-c1cccc(Cl)c1` [Example 258, 3-(3-Chlorophenyl)-5-{[3-(fluoromethyl)-1H-1,2,4-triazol-1-yl]methyl}-2-methoxypyrazine], the EC50 is 1 to 10 µM.
In the case of `FC(F)Oc1ncc(Cn2cnc(C(F)F)n2)cc1-c1cccc(Cl)c1` [Example 259, 3-(3-Chlorophenyl)-2-(difluoromethoxy)-5-{[3-(difluoromethyl)-1H-1,2,4-triazol-1-yl]methyl}pyridine] it was 0.1 to 1 µM; in that of `CCOc1ncc(Cn2cnc(C(F)F)n2)cc1-c1cccc(OC(F)F)c1` [Example 260, 3-[3-(Difluoromethoxy)phenyl]-5-{[3-(difluoromethyl)-1H-1,2,4-triazol-1-yl]methyl}-2-ethoxypyridine], below 0.1 µM.
On to `COc1ncc(Cn2cnc(C(F)F)n2)cc1-c1ccnc(OC(F)F)c1` [Example 261, 3-[2-(Difluoromethoxy)pyridin-4-yl]-5-{[3-(difluoromethyl)-1H-1,2,4-triazol-1-yl]methyl}-2-methoxypyridine], for which the EC50 was below 0.1 µM.
In the case of `COc1ncc(Cn2ccnn2)cc1-c1cccc(Cl)c1` [Example 262, 3-(3-Chlorophenyl)-2-methoxy-5-(1H-1,2,3-triazol-1-ylmethyl)pyridine] it was below 0.1 µM; in that of `CCOc1ncc(Cn2cc(CO)nn2)cc1-c1cccc(OC(F)F)c1` [Example 263, [1-({5-[3-(Difluoromethoxy)phenyl]-6-ethoxypyridin-3-yl}methyl)-1H-1,2,3-triazol-4-yl]methanol], below 0.1 µM.
In the case of `CCOc1cccc(-c2cc(Cn3cc(CO)nn3)cnc2OC(F)F)c1` [Example 264, (1-((6-(Difluoromethoxy)-5-(3-ethoxyphenyl)pyridin-3-yl)methyl)-1H-1,2,3-triazol-4-yl)methanol] it was below 0.1 µM; in that of `CCOc1ncc(Cn2cc(CO)nn2)nc1-c1cccc(OC(F)F)c1` [Example 265, [1-({6-[3-(Difluoromethoxy)phenyl]-5-ethoxypyrazin-2-yl}methyl)-1H-1,2,3-triazol-4-yl]methanol], 0.1 to 1 µM.
In the case of `COc1ncc(Cn2cc(CO)nn2)nc1-c1cccc(Cl)c1` [Example 266, (1-{[6-(3-Chlorophenyl)-5-methoxypyrazin-2-yl]methyl}-1H-1,2,3-triazol-4-yl)methanol] it was 0.1 to 1 µM.
Regarding `COc1ncc(Cn2cc(CO)nn2)nc1-c1cccc(OC(F)F)c1` [Example 267, [1-({6-[3-(Difluoromethoxy)phenyl]-5-methoxypyrazin-2-yl}methyl)-1H-1,2,3-triazol-4-yl]methanol], the 50% effective concentration (EC50) fell in the range of 0.1 to 1 µM.
As for `CCOc1ncc(Cn2cc(CO)nn2)nc1-c1cccc(Cl)c1` [Example 268, (1-{[6-(3-Chlorophenyl)-5-ethoxypyrazin-2-yl]methyl}-1H-1,2,3-triazol-4-yl)methanol], the figure is 0.1 to 1 µM; as for `CCOc1ncc(Cn2cc(C(F)F)nn2)cc1-c1cccc(OC(F)F)c1` [Example 269, 3-[3-(Difluoromethoxy)phenyl]-5-{[4-(difluoromethyl)-1H-1,2,3-triazol-1-yl]methyl}-2-ethoxypyridine], 0.1 to 1 µM; as for `COc1ncc(Cn2cc(C(=O)O)cn2)cc1-c1cccc(Cl)c1` [Example 270, 1-{[5-(3-Chlorophenyl)-6-methoxypyridin-3-yl]methyl}-1H-pyrazole-4-carboxylic acid], above 10 µM.
`COc1ncc(Cn2cc(C(N)=O)cn2)cc1-c1cccc(Cl)c1` [Example 271, 1-{[5-(3-Chlorophenyl)-6-methoxypyridin-3-yl]methyl}-1H-pyrazole-4-carboxamide] registered an EC50 of 0.1 to 1 µM.
On to `COc1ncc(Cn2cc(CO)cn2)cc1-c1cccc(OC(F)F)c1` [Example 272, [1-({5-[3-(Difluoromethoxy)phenyl]-6-methoxypyridin-3-yl}methyl)-1H-pyrazol-4-yl]methanol], for which the half-maximal effective concentration (EC50) was below 0.1 µM.
As to `OCc1cncn1Cc1cnc(OC(F)F)c(-c2cccc(Cl)c2)c1` [Example 273, (1-{[5-(3-Chlorophenyl)-6-(difluoromethoxy)pyridin-3-yl]methyl}-1H-imidazol-5-yl)methanol], the EC50 was 1 to 10 µM.
In the case of `OCc1cn(Cc2cnc(OC(F)F)c(-c3cccc(Cl)c3)c2)cn1` [Example 274, (1-{[5-(3-Chlorophenyl)-6-(difluoromethoxy)pyridin-3-yl]methyl}-1H-imidazol-4-yl)methanol] it was below 0.1 µM; in that of `COc1ncc(Cn2ccc(CO)n2)cc1-c1cccc(OC(F)F)c1` [Example 275, [1-({5-[3-(Difluoromethoxy)phenyl]-6-methoxypyridin-3-yl}methyl)-1H-pyrazol-3-yl]methanol], below 0.1 µM.
As to `CCOc1ncc(Cn2cc(CO)cn2)cc1-c1cccc(Cl)c1` [Example 276, (1-{[5-(3-Chlorophenyl)-6-ethoxypyridin-3-yl]methyl}-1H-pyrazol-4-yl)methanol], the half-maximal effective concentration (EC50) is below 0.1 µM.
On to `CCOc1ncc(Cn2cc(Cl)c(CO)n2)cc1-c1cccc(Cl)c1` [Example 277, (4-Chloro-1-{[5-(3-chlorophenyl)-6-ethoxypyridin-3-yl]methyl}-1H-pyrazol-3-yl)methanol], for which the EC50 was in the range of 0.1 to 1 µM.
Consider `CCOc1ncc(Cn2ncc(Cl)c2CO)cc1-c1cccc(Cl)c1` [Example 278, (4-Chloro-1-{[5-(3-chlorophenyl)-6-ethoxypyridin-3-yl]methyl}-1H-pyrazol-5-yl)methanol], for which the half-maximal effective concentration (EC50) lay in the range of 0.1 to 1 µM.
Regarding `O=C(O)c1ccc(Cc2cnc(OC(F)F)c(-c3cccc(Cl)c3)c2)cc1` [Example 280, 4-{[5-(3-Chlorophenyl)-6-(difluoromethoxy)pyridin-3-yl]methyl}benzoic acid], the concentration giving a half-maximal response (EC50) lay in the range of 1 to 10 µM.
